Assay results from PMC9735573 (International Journal of Molecular Sciences, 2022).
pEC50: −log10 of the molar value. Read-outs that look alike come from different tables or passages of the source.

Experiments:
[1] = mouse, in vivo, ip, 50 mg/kg
in vivo [2] = conditions: female, BALB/c, mouse, ip, 50 mg/kg
[3] = Pharmacokinetic study in mice, Retro-2.1 in PLGA–PEG–PLGA hydrogel, 25 mg/kg SC; assay type: in vivo; conditions: for half-life: flip-flop pharmacokinetics, read-out: Thalf (apparent elimination half-life) (converted); for Cmax: mice plasma
[4] = test system: Shiga-like toxin-1 (Stx-1), HeLa cells; assay: cells; assay type: cell-based, human; conditions: for pEC50: Homo sapiens, HeLa, read-out: EC50 (Stx-1 intoxication assay)
[5] = mouse
[6] = Characterisation and stability of Retro-2.1 formulation in PEG–PLA micelles; assay type: physicochemical
Procedure: Retro-2.1 was encapsulated in PEG–PLA micelles using the thin-film hydration method, also known as the solvent casting method. This method allowed us to dissolve 4.55 mg/mL of the drug in 26.4 mg/mL of PEG–PLA solution, with an encapsulation yield of 91% and a drug loading of 15%, as determined with HPLC analysis using a calibration curve (Figure S1). […] As previously described, including for Genexol®-PM, these micelles are likely to be spherical. Although the zeta potential of these micelles was not determined in this study, PEG–PLA micelles are widely described to have a neutral to slightly negatively charged surface. […] However, about 35% of the drug load precipitated upon storage at room temperature for 24 h (Figure S3). Every subsequent formulation was therefore stored at −20 °C and thawed at 4 °C before use.
(§1) Dynamic light scattering experiments were performed using a Vasco Flex particle size analyzer equipped with a 450 nm laser. Data were recorded at 20 °C using a refractive index of 1.331 and a solvent viscosity of 0.982 cP. For each sample, 10 acquisitions were realized using a noise limit of 1% and 200 channels with a time interval of 1 µs. All samples were analyzed at a concentration of 10 mg/mL in 4 mL glass vials (Lab File, Wheaton) unless otherwise noted.
In a round-bottom flask, Retro-2.1 (92 mg, 211 µmol) and PEG–PLA (528 mg, 132 µmol) were dissolved in acetone (20 mL). The solvent was removed under reduced pressure to yield a transparent pale-yellow polymeric film, which was rehydrated with saline (15 mL) at 40 °C. Next, 2M NaOH solution in water was added to reach a pH of 7. The volume was adjusted to 20 mL with saline, and the solution was sterile-filtered on a 0.2 µm membrane (Millex®, Duluth, GA, USA) into several 6 mL sterile vials and stored at −20 °C until further use. The Retro-2.1 concentration was determined using HPLC after dilution of the solution in MeOH. Drug loadings and encapsulation efficiencies were calculated using the following formula:(1) encapsulation yield=100*mdrug dissolved/mdrug addeddrug loading=100* mdrug/mdrug+mpolymer
(§2) A sample of the formulation was placed in a 500 µL Eppendorf tube and stored at −20 °C, 4 °C or room temperature (20–25 °C). At each timepoint, the sample was centrifuged (15,000× g, 5 min, 4 °C) and the Retro-2.1 concentration in the supernatant was determined using HPLC.

in vivo [7] = conditions: female, BALB/c, mouse, 2 mg/kg; for half-life: Thalf (elimination half-life)
[8] = mouse, in vivo, 2 mg/kg
[9] = Characterisation and stability of Retro-2.1 formulation in PLGA–PEG–PLGA; assay type: physicochemical
Procedure: The thin-film rehydration technique was also used to formulate Retro-2.1 in PLGA–PEG–PLGA, using acetone as a dissolution solvent and saline as a rehydration vehicle. As previously described, the polymer was prepared as a 20% (w/v) solution in saline. This solution was able to stably dissolve 3.25 mg/mL of Retro-2.1, with an encapsulation yield of 98% and a drug loading of 1.9%. […] Of note, above 42 °C, the polymer aggregated and separated from water, which is in accordance with other reported polymers with similar structures. The formulation was stable for at least 13 days when stored at 4 °C. However, like the formulation in PEG–PLA, the formulation in PLGA–PEG–PLGA lost 20% of its payload upon storage at 25 °C for 24 h (Figure S10). Subsequent formulations were therefore freshly prepared and stored at 4 °C before use.
as §1
In a round-bottom flask, Retro-2.1 (59.8 mg, 137 µmol) and PLGA–PEG–PLGA (3.00 g, 545 µmol) were dissolved in acetone (15 mL). The solvent was removed under reduced pressure to yield a translucent pale-yellow polymeric film, which was further dried under vacuum for 4 h. The film was rehydrated with saline (15 mL) at room temperature, and 2 M NaOH solution in water was added to reach a pH of 7. The solution was sterile-filtered on a 0.2 µm membrane (Millex®) into 6 mL sterile vials and stored at 4 °C until further use. The Retro-2.1 concentration was determined using HPLC after dilution of the solution in MeCN. Drug loadings and encapsulation efficiencies were calculated, as described before.
as §2

Aqueous solubility = assay type: physicochemical
[10] = test system: Shiga-like toxin-1 (Stx-1), HeLa cells; conditions: cited from earlier work
[11] = human
[12] = SC injection of 25 mg/kg of Retro-2.1 in PLGA–PEG–PLGA, mice
[13] = female, BALB/c, mouse, plasma, SC injection of 25 mg/kg of Retro-2.1 in PLGA–PEG–PLGA, mice
[14] = female, BALB/c, mouse, SC injection of 25 mg/kg of Retro-2.1 in PLGA–PEG–PLGA

## CN1c2ccc(F)cc2C(=O)N(c2ccccc2)C1c1ccc(-c2csc(CO)n2)s1 (centres unmarked) [compound 3]
[1]; female, BALB/c
  AUCextra: 0.4%
  Thalf: 3.7 h
In vivo [2]
  AUC: 6700 ng·h/mL
  Cmax: 2.76 µg/mL
  MRT: 3.43 h
  Tmax: 0.25 h
[3]; [12]
  AUCextra: 12%
[3]; [13]
  AUC: 621 ng·h/mL
  MRT: 21 h
  Tmax: 2 h
  half-life: 15 h
[3]; [14]
  Cmax: 0.0393 µg/mL
[4]
  fold less potent than Retro-2.1: 80 fold
  pEC50: 5.13

## Cc1nc(-c2ccc(C3N(C)c4ccc(F)cc4C(=O)N3c3ccccc3)s2)cs1 (centres unmarked) [Retro-2.1, 6-fluoro-1-methyl-2-(5-(2-methylthiazol-4-yl)thiophen-2-yl)-3-phenyl-2,3-dihydroquinazolin-4(1H)-1]
[1]; female, BALB/c
  AUCextra: 0.1%
  Thalf: 3.3 h
  VSS: 2.8 L/kg
[1]
  plasma detectability 24 h after injection: barely detectable
  signs of pain or acute toxicity: no apparent sign of pain or acute toxicity was observed
[5]
  Non-NADPH degradation: < 5%
[5]; microsomes
  Clint: 460 μL.min^−1.mg of protein^−1
[6]; PEG–PLA formulation stored at 4 °C and −20 °C
  formulation stable for: at least 48 h
[6]; PEG–PLA formulation, room temperature, 24 h
  drug load precipitated upon storage: about 35%
[6]; PEG–PLA micelles
  drug loading: 15%
  encapsulation yield: 91%
[6]; Retro-2.1-loaded PEG–PLA micelles
  micelle mean diameter (DLS): 22.5 nm
[6]; in 26.4 mg/mL of PEG–PLA solution, thin-film hydration, HPLC
  drug concentration dissolved in polymer solution: 4550 µg/mL
In vivo [7]; ip
  AUC: 322 ng·h/mL
  CL/F: 103 mL/min/kg
  Cmax: 0.304 µg/mL
  MRT: 4.2 h
  Tmax: 5 min
  half-life: 5 h
In vivo [7]; iv
  AUC: 213 ng·h/mL
  Cmax: 0.328 µg/mL
  MRT: 2.9 h
  Tmax: 5 min
  Vd: 27.5 L/kg
  clearance: 157 mL/min/kg
  half-life: 6.7 h
In vivo [2]
  AUC: 18500 ng·h/mL
  CL/F: 45 mL/min/kg
  Cmax: 50.6 µg/mL
  MRT: 1 h
  Tmax: 0.0833 h
[8]; female, BALB/c, ip
  AUCextra: 2.1%
  Thalf (elimination half-life): 6.7 h
  VSS: 26.3 L/kg
  plasmatic concentration 7 h following injection: 21 nM
[8]; female, BALB/c, iv
  AUCextra: 2.3%
  Thalf (elimination half-life): 5 h
  plasmatic concentration 7 h following injection: 6 nM
[8]
  signs of pain or acute toxicity: no sign of pain or acute toxicity was observed
[9]; 20% (w/v) PLGA–PEG–PLGA in saline
  drug concentration stably dissolved in polymer solution: 3250 µg/mL
[9]; PLGA–PEG–PLGA
  drug loading: 1.9%
  encapsulation yield: 98%
[9]; PLGA–PEG–PLGA formulation stored at 4 °C
  formulation stable for: at least 13 days
[9]; PLGA–PEG–PLGA formulation, 25 °C, 24 h
  payload lost upon storage: 20%
[9]; PLGA–PEG–PLGA formulation, inverted vial method
  temperature at which formulation starts solidifying: 31 °C
[9]; Retro-2.1-loaded PLGA–PEG–PLGA micelles
  micelle mean diameter (DLS): 24.1 nm
[3]; [12]
  AUCextra: 17%
  VSS: 456 L/kg
[3]; [13]
  AUC: 1420 ng·h/mL
  CL/F: 294 mL/min/kg
  MRT: 26 h
  Tmax: 2 h
  half-life: 19 h
[3]; [14]
  Cmax: 0.0752 µg/mL
[3]; mice, 25 mg/kg SC in PLGA–PEG–PLGA
  duration of sustained release: at least 48 h
[3]; mice, 25 mg/kg SC in PLGA–PEG–PLGA, over 48 h
  signs of pain or acute toxicity: no sign of pain or acute toxicity was observed
[4]
  pEC50: 7.05
Aqueous solubility
  solubility: < 1 µg/mL
[10]
  times more potent than Retro-2: about 100 times
[10]; read-out: EC50 against the Shiga toxin
  pEC50: 6.99
[11]
  Non-NADPH degradation: < 5%
[11]; microsomes
  Clint: 27.8 μL.min^−1.mg of protein^−1
[11]; microsomes, 0.75 h
  Metabolic stability at t = 45 min (remaining): 27.4%
